# Measured values from article PMC7822874, “Chemoprotective antimalarials identified through quantitative high-throughput screening of Plasmodium blood and liver stage parasites” (Scientific Reports, 2021).
# Where two headings read alike, the source gives them in different places.
# Tests used:
# [1] = in vitro; conditions: human
# [2] = test system: luciferase-expressing P. berghei liver stage parasites in HepG2 cells; test: Inhibition of liver-stage development assay (ILSDA), Method 2 (WRAIR, 96-well); type: cell-based, Plasmodium berghei; conditions: for AC50: Plasmodium berghei, HepG2, Method 2
# [3] = test system: P. berghei-ANKA-GFP-LucCON liver stage parasites in HepG2-A16-CD81EGFP cells; test: P. berghei liver stage Pb-Luc assay, Method 1 (UCSD, 1536-well); on Pb-Luc signal, 1 uM, repeat 1: reference of the scale not given here; on Pb-Luc signal, 1 uM, repeat 2: reference of the scale not given here; on Pb-Luc signal, 1 uM, repeat 3: reference of the scale not given here; on Pb-Luc signal, 3 uM, repeat 1: reference of the scale not given here; on Pb-Luc signal, 3 uM, repeat 2: reference of the scale not given here; on Pb-Luc signal, 3 uM, repeat 3: reference of the scale not given here; type: cell-based, Plasmodium berghei; conditions: for activity at 1 µM / activity at 3 µM: 48 h, average of 2 wells, 1536-well plate; for activity at 1 µM: nominal 1 uM (10 mM stock), […] for 15 mM, 1.2 uM for 12 mM, 2 uM for 20 mM stock; for activity at 3 µM: nominal 3 uM (10 mM stock), 4.5 uM for 15 mM, 3.6 uM for 12 mM, 6 uM for 20 mM stock; for Max Resp (signal direction of the dose response): Decrease = decreasing P. berghei viability with dose, Increase = increasing signal, Inactive = no dose response
# [4] = test system: Plasmodium falciparum Dd2 asexual blood stage parasites; test: microbe, parasite or virus in culture; parameters: species or system Plasmodium falciparum Dd2 in human erythrocytes; single determination (one 11-point concentration-response curve); conditions: Plasmodium falciparum, DD2, Erythrocyte, 72 h; read-out: AC50
# [5] = test system: HepG2-A16-CD81EGFP cells; conditions: average of 2 wells; for HepG2 viability signal, 3 uM, repeat 2: nominal 3 uM (10 mM stock), 4.5 uM for 15 mM, 3.6 uM for 12 mM, 6 uM for 20 mM stock
# [6] = HepG2-A16-CD81EGFP cells, uninfected
# [7] = Method 2, Decrease = decreasing P. berghei viability with dose, Increase = increasing signal, Inactive = no dose response
# [8] = Plasmodium berghei, repeat 1, read-out: Pb-Luc signal, 1 uM, repeat 1
# [9] = Plasmodium berghei, repeat 2, read-out: Pb-Luc signal, 1 uM, repeat 2
# [10] = Plasmodium berghei, repeat 3, read-out: Pb-Luc signal, 1 uM, repeat 3
# [11] = Plasmodium berghei, repeat 1, read-out: Pb-Luc signal, 3 uM, repeat 1
# [12] = Plasmodium berghei, repeat 2, read-out: Pb-Luc signal, 3 uM, repeat 2
# [13] = Plasmodium berghei, repeat 3, read-out: Pb-Luc signal, 3 uM, repeat 3
# [14] = Plasmodium berghei, Method 1, Hill fit, 50% of maximum activity response, read-out: AC50
# [15] = Plasmodium berghei, Method 1, log10 of molar AC50 from Hill fit, read-out: Log AC50 (converted)
# [16] = nominal 1 uM (10 mM stock), […] for 15 mM, 1.2 uM for 12 mM, 2 uM for 20 mM stock
# [17] = Hill fit, 50% of maximum activity response, read-out: AC50
# [18] = log10 of molar AC50 from Hill fit, read-out: Log AC50 (converted)
SMILES,"viability at 48 h, 1 µM [1, 6]","viability at 48 h, 3 µM [1, 6]","Max Resp (signal direction of the dose response) [2, 7]","activity at 1 µM [3, 8]","activity at 1 µM [3, 9]","activity at 1 µM [3, 10]","activity at 3 µM [3, 11]","activity at 3 µM [3, 12]","activity at 3 µM [3, 13]","HepG2 viability signal, 1 uM, repeat 2 [5, 16]","HepG2 viability signal, 3 uM, repeat 2 [5]","AC50 [2, 17]","AC50 [2, 18]",other results
Cc1ccc(C(=O)Nc2nc(-c3ccccn3)cs2)cc1S(=O)(=O)N1CCOCC1 [MLS002157637-01],92%,55%,Inactive,,,,,,,,,,,
COc1ccc(-c2cc(C(F)(F)F)nc(SCCC(=O)Nc3cc(C)ccc3O)n2)cc1 [NCGC00101472-01],,,Inactive,38.3%,70%,108%,2.83%,48.6%,51.1%,103.33%,103.42%,,,"AC50 [3, 14]: 2000 nM; AC50 [3, 15]: 2000 nM; AC50 [4]: 1880 nM; HepG2 viability signal, 1 uM, repeat 1 ([5]; nominal 1 uM (10 mM stock), […] for 15 mM, 1.2 uM for 12 mM, 2 uM for 20 mM stock, repeat 1): 98.35%"
CCc1ccc(C2Sc3ccccc3N=C3C2=C(O)c2ccccc23)cc1 (stereo not shown) [NCGC00108831-01],103%,105%,Decrease,12.1%,58.2%,12.7%,2.42%,50.9%,62.2%,104.01%,104.74%,398 nM,398 nM,Max Resp (signal direction of the dose response) ([3]; Method 1): Decrease
CCCCN(CC)CCNC(=O)c1cc2c(-c3ccc(Cl)cc3)nn(C)c2s1 [NCGC00108995],,,Inactive,,,,,,,,,,,"viability at 66 h [1, 6]: 102%"
O=C1c2ccccc2-n2c1nc1ccccc1c2=O [NCGC00160337],,,,,,,,,,,,,,viability [1]: 87%; Max Resp (signal direction of the dose response) [2]: Increase
Cc1ccc(Nc2nc(NCCO)c3ccccc3n2)cc1C [NCGC00273600-02],96%,82%,Decrease,,,,,,,,,562 nM,562 nM,
Cc1ccc(C(=O)Nc2nc(-c3ccccn3)cs2)cc1[S+](=O)([O-])N1CCOCC1.O=C(O)C(F)(F)F [NCGC00345210-01],73%,31%,Inactive,,,,,,,,,,,
c1ccc(CNc2nc(NCc3ccccc3)c3ccccc3n2)cc1 [NCGC00347066-01],83%,72%,Inactive,,,,,,,,,,,
COc1ccc(-n2nc(C)c([C@@H]3C=C[C@@H](NCc4cccc(Cl)c4)C3)c2C)cc1 [NCGC00391691-01],104%,102%,Decrease,41.3%,40.5%,39.6%,11.5%,13.5%,12.4%,103.31%,96.15%,1260 nM,1260 nM,"Max Resp (signal direction of the dose response) ([3]; Method 1): Decrease; AC50 ([3]; Method 1, Hill fit, 50% of maximum activity response, read-out: AC50): 2000 nM; Log AC50 (M) ([3]; Method 1, log10 of molar AC50 from Hill fit): -5.700 M; AC50 [3, 14]: 1580 nM; AC50 [3, 15]: 1580 nM; AC50 [4]: 1370 nM"
